Assay results from PubChem BioAssay (NCI).
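48-hour exposure; five concentrations; linearly interpolated endpoints. TGI is the concentration that stops growth completely.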

Columns and labels:
Test in all cases: NCI-60 cell line screen, 48 h
786-0 renal = test system: 786-0 renal
A498 renal = test system: A498 renal
A549 NSCLC = test system: A549 NSCLC
ACHN renal = test system: ACHN renal
CAKI-1 renal = test system: CAKI-1 renal
CCRF-CEM leukemia = test system: CCRF-CEM leukemia
COLO 205 colon = test system: COLO 205 colon
DLD-1 colon = test system: DLD-1 colon
DMS 114 small cell lung = test system: DMS 114 small cell lung
DMS 273 small cell lung = test system: DMS 273 small cell lung
HCC-2998 colon = test system: HCC-2998 colon
HCT-116 colon = test system: HCT-116 colon
HCT-15 colon = test system: HCT-15 colon
HL-60(TB) leukemia = test system: HL-60(TB) leukemia
HOP-18 NSCLC = test system: HOP-18 NSCLC
HOP-62 NSCLC = test system: HOP-62 NSCLC
HOP-92 NSCLC = test system: HOP-92 NSCLC
HT29 colon = test system: HT29 colon
IGROV1 ovarian = test system: IGROV1 ovarian
K-562 leukemia = test system: K-562 leukemia
KM12 colon = test system: KM12 colon
LOX IMVI melanoma = test system: LOX IMVI melanoma
LXFL 529 NSCLC = test system: LXFL 529 NSCLC
M14 melanoma = test system: M14 melanoma
M19-MEL melanoma = test system: M19-MEL melanoma
MALME-3M melanoma = test system: MALME-3M melanoma
MOLT-4 leukemia = test system: MOLT-4 leukemia
NCI-H23 lung = test system: NCI-H23 lung
NCI-H522 lung = test system: NCI-H522 lung
OVCAR-3 ovarian = test system: OVCAR-3 ovarian
OVCAR-4 ovarian = test system: OVCAR-4 ovarian
OVCAR-5 ovarian = test system: OVCAR-5 ovarian
OVCAR-8 ovarian = test system: OVCAR-8 ovarian
RPMI-8226 leukemia = test system: RPMI-8226 leukemia
RXF 393 renal = test system: RXF 393 renal
SF-268 CNS = test system: SF-268 CNS
SF-295 CNS = test system: SF-295 CNS
SF-539 CNS = test system: SF-539 CNS
SK-MEL-2 melanoma = test system: SK-MEL-2 melanoma
SK-MEL-28 melanoma = test system: SK-MEL-28 melanoma
SK-MEL-5 melanoma = test system: SK-MEL-5 melanoma
SK-OV-3 ovarian = test system: SK-OV-3 ovarian
SN12C renal = test system: SN12C renal
SNB-19 CNS = test system: SNB-19 CNS
SNB-75 CNS = test system: SNB-75 CNS
SW-620 colon = test system: SW-620 colon
TK-10 renal = test system: TK-10 renal
U251 CNS = test system: U251 CNS
UACC-62 melanoma = test system: UACC-62 melanoma
UO-31 renal = test system: UO-31 renal
EKVX NSCLC = test system: EKVX NSCLC
NCI-H226 lung = test system: NCI-H226 lung
NCI-H460 lung = test system: NCI-H460 lung
SNB-78 CNS = test system: SNB-78 CNS
SR leukemia = test system: SR leukemia
UACC-257 melanoma = test system: UACC-257 melanoma

CC(C1=CC=C2[C@@H]3CCC4CC(N(C)C)CC[C@]4(C)C3CC[C@]12C)N(C)C=O (stereo partly drawn)
TGI (786-0 renal): > 100 µM | TGI (A498 renal): > 100 µM | TGI (A549 NSCLC): > 100 µM | TGI (ACHN renal): > 100 µM | TGI (CAKI-1 renal): > 100 µM | TGI (CCRF-CEM leukemia): > 100 µM | TGI (COLO 205 colon): > 100 µM | TGI (DLD-1 colon): > 100 µM | TGI (DMS 114 small cell lung): > 100 µM | TGI (DMS 273 small cell lung): > 100 µM | TGI (HCC-2998 colon): > 100 µM | TGI (HCT-116 colon): > 100 µM | TGI (HCT-15 colon): > 100 µM | TGI (HL-60(TB) leukemia): > 100 µM | TGI (HOP-18 NSCLC): > 100 µM | TGI (HOP-62 NSCLC): > 100 µM | TGI (HOP-92 NSCLC): > 100 µM | TGI (HT29 colon): > 100 µM | TGI (IGROV1 ovarian): > 100 µM | TGI (K-562 leukemia): > 100 µM | TGI (KM12 colon): > 100 µM | TGI (LOX IMVI melanoma): > 100 µM | TGI (LXFL 529 NSCLC): > 100 µM | TGI (M14 melanoma): > 100 µM | TGI (M19-MEL melanoma): > 100 µM | TGI (MALME-3M melanoma): > 100 µM | TGI (MOLT-4 leukemia): > 100 µM | TGI (NCI-H23 lung): > 100 µM | TGI (NCI-H522 lung): > 100 µM | TGI (OVCAR-3 ovarian): > 100 µM | TGI (OVCAR-4 ovarian): > 100 µM | TGI (OVCAR-5 ovarian): > 100 µM | TGI (OVCAR-8 ovarian): > 100 µM | TGI (RPMI-8226 leukemia): > 100 µM | TGI (RXF 393 renal): > 100 µM | TGI (SF-268 CNS): > 100 µM | TGI (SF-295 CNS): > 100 µM | TGI (SF-539 CNS): > 100 µM | TGI (SK-MEL-2 melanoma): > 100 µM | TGI (SK-MEL-28 melanoma): > 100 µM | TGI (SK-MEL-5 melanoma): > 100 µM | TGI (SK-OV-3 ovarian): > 100 µM | TGI (SN12C renal): > 100 µM | TGI (SNB-19 CNS): > 100 µM | TGI (SNB-75 CNS): > 100 µM | TGI (SW-620 colon): > 100 µM | TGI (TK-10 renal): > 100 µM | TGI (U251 CNS): > 100 µM | TGI (UACC-62 melanoma): > 100 µM | TGI (UO-31 renal): > 100 µM

CC(=O)NC1=C(C)C(=O)c2c(nc3n2CCC3OC(=O)CCl)C1=O (stereo not drawn)
TGI (786-0 renal): 21.6 µM | TGI (A498 renal): 27.4 µM | TGI (A549 NSCLC): 26 µM | TGI (ACHN renal): 42.5 µM | TGI (CAKI-1 renal): 35.2 µM | TGI (CCRF-CEM leukemia): 4.52 µM | TGI (COLO 205 colon): 34.7 µM | TGI (DLD-1 colon): 29.7 µM | TGI (DMS 273 small cell lung): 33.6 µM | TGI (EKVX NSCLC): 20.6 µM | TGI (HCC-2998 colon): 25.7 µM | TGI (HCT-116 colon): 5.57 µM | TGI (HL-60(TB) leukemia): 8.58 µM | TGI (HOP-62 NSCLC): 31.6 µM | TGI (HOP-92 NSCLC): 5.15 µM | TGI (HT29 colon): 30.3 µM | TGI (IGROV1 ovarian): 25.2 µM | TGI (K-562 leukemia): 5.73 µM | TGI (KM12 colon): 29.5 µM | TGI (LOX IMVI melanoma): 16.8 µM | TGI (LXFL 529 NSCLC): 5.12 µM | TGI (M14 melanoma): 32.2 µM | TGI (M19-MEL melanoma): 26.3 µM | TGI (MALME-3M melanoma): 16.6 µM | TGI (MOLT-4 leukemia): 4.48 µM | TGI (NCI-H226 lung): 7.01 µM | TGI (NCI-H23 lung): 26.1 µM | TGI (NCI-H460 lung): 56.2 µM | TGI (NCI-H522 lung): 11.9 µM | TGI (OVCAR-3 ovarian): 3.68 µM | TGI (OVCAR-4 ovarian): 4.19 µM | TGI (OVCAR-5 ovarian): 25.5 µM | TGI (OVCAR-8 ovarian): 16.6 µM | TGI (RPMI-8226 leukemia): > 100 µM | TGI (RXF 393 renal): 18.1 µM | TGI (SF-268 CNS): 21.9 µM | TGI (SF-295 CNS): 29.9 µM | TGI (SF-539 CNS): 6.47 µM | TGI (SK-MEL-2 melanoma): 10.2 µM | TGI (SK-MEL-28 melanoma): 31.4 µM | TGI (SK-MEL-5 melanoma): 25.4 µM | TGI (SK-OV-3 ovarian): 37.9 µM | TGI (SN12C renal): 24.1 µM | TGI (SNB-19 CNS): 32.1 µM | TGI (SNB-75 CNS): 30.1 µM | TGI (SNB-78 CNS): 6.5 µM | TGI (SR leukemia): > 100 µM | TGI (SW-620 colon): 22.6 µM | TGI (TK-10 renal): 43.1 µM | TGI (U251 CNS): 11.8 µM | TGI (UACC-257 melanoma): 25.5 µM | TGI (UACC-62 melanoma): 6.33 µM | TGI (UO-31 renal): 31.9 µM
